pIC50: −log10 of the molar value.
System: KRAS patient-derived spheroids with HUVEC/MSC, viability
Assay: Anticancer human tumor 941728-121-R-J1-PDC patient-derived lung adenocarcinoma cell line growth inhibition [KRAS2]
Conditions: for pIC50: curve of first compound; for viability, T/C: stronger effect = lower value
Summary of the method: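 Combination screen of spheroid viability in tumor-cell co-cultures with endothelial (HUVEC) and mesenchymal stem cell stroma. Each agent was tested in half-log dilutions, topping at clinical Cmax or at 10 microM without a known Cmax.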

[1] = second compound 0.1 µM, first compound 0.0316 µM
[2] = second compound 0.1 µM, first compound 0.1 µM
[3] = second compound 0.1 µM, first compound 0.316 µM
[4] = second compound 0.1 µM, first compound 1 µM
[5] = second compound 0.1 µM, first compound 3.16 µM
[6] = second compound 0.1 µM, first compound 10 µM
[7] = second compound 0.316 µM, first compound 0.0316 µM
[8] = second compound 0.316 µM, first compound 0.1 µM
[9] = second compound 0.316 µM, first compound 0.316 µM
[10] = second compound 0.316 µM, first compound 1 µM
[11] = second compound 0.316 µM, first compound 3.16 µM
[12] = second compound 0.316 µM, first compound 10 µM
[13] = second compound 1 µM, first compound 0.0316 µM
[14] = second compound 1 µM, first compound 0.1 µM
[15] = second compound 1 µM, first compound 0.316 µM
[16] = second compound 1 µM, first compound 1 µM
[17] = second compound 1 µM, first compound 3.16 µM
[18] = second compound 1 µM, first compound 10 µM
[19] = second compound 3.16 µM, first compound 0.0316 µM
[20] = second compound 3.16 µM, first compound 0.1 µM
[21] = second compound 3.16 µM, first compound 0.316 µM
[22] = second compound 3.16 µM, first compound 1 µM
[23] = second compound 3.16 µM, first compound 3.16 µM
[24] = second compound 3.16 µM, first compound 10 µM
[25] = second compound 10 µM, first compound 0.0316 µM
[26] = second compound 10 µM, first compound 0.1 µM
[27] = second compound 10 µM, first compound 0.316 µM
[28] = second compound 10 µM, first compound 1 µM
[29] = second compound 10 µM, first compound 3.16 µM
[30] = second compound 10 µM, first compound 10 µM
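Further: spheroids exposed to agents for seven days before readout.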

COc1cc(Nc2ncc3c(n2)-c2ccc(Cl)cc2C(c2c(F)cccc2OC)=NC3)ccc1C(=O)O + COc1cc2nc(C)nc(NC(C)c3cc(N)cc(C(F)(F)F)c3)c2cc1OC1CCOC1
pIC50 (second compound 0.1 µM): > 7.50 | pIC50 (second compound 0.316 µM): > 7.50 | pIC50 (second compound 1 µM): > 7.50 | pIC50 (second compound 3.16 µM): > 7.50 | pIC50 (second compound 10 µM): > 7.50 | viability, T/C [1]: 52.4% | viability, T/C [2]: 44.5% | viability, T/C [3]: 44.1% | viability, T/C [4]: 47.7% | viability, T/C [5]: 42.1% | viability, T/C [6]: 42.1% | viability, T/C [7]: 41% | viability, T/C [8]: 42.3% | viability, T/C [9]: 44.1% | viability, T/C [10]: 40.2% | viability, T/C [11]: 40.7% | viability, T/C [12]: 37.3% | viability, T/C [13]: 34.7% | viability, T/C [14]: 38% | viability, T/C [15]: 36.5% | viability, T/C [16]: 38.2% | viability, T/C [17]: 33.9% | viability, T/C [18]: 31.4% | viability, T/C [19]: 34.2% | viability, T/C [20]: 32.6% | viability, T/C [21]: 36.6% | viability, T/C [22]: 30.6% | viability, T/C [23]: 23% | viability, T/C [24]: 19.7% | viability, T/C [25]: 12.4% | viability, T/C [26]: 14.3% | viability, T/C [27]: 7.81% | viability, T/C [28]: 4.39% | viability, T/C [29]: 6.63% | viability, T/C [30]: 3.43%

COc1cc2nccc(Oc3ccc(NC(=O)C4(C(=O)Nc5ccc(F)cc5)CC4)cc3)c2cc1OC + COc1cc2nc(C)nc(NC(C)c3cc(N)cc(C(F)(F)F)c3)c2cc1OC1CCOC1
pIC50 (second compound 0.1 µM): 6.84 | pIC50 (second compound 0.316 µM): > 7.50 | pIC50 (second compound 1 µM): > 7.50 | pIC50 (second compound 3.16 µM): > 7.50 | pIC50 (second compound 10 µM): > 7.50 | viability, T/C [1]: 57.4% | viability, T/C [2]: 55.2% | viability, T/C [3]: 38.9% | viability, T/C [4]: 25.9% | viability, T/C [5]: 31.4% | viability, T/C [6]: 57.4% | viability, T/C [7]: 34.7% | viability, T/C [8]: 41.7% | viability, T/C [9]: 27.6% | viability, T/C [10]: 17.3% | viability, T/C [11]: 21.7% | viability, T/C [12]: 35.6% | viability, T/C [13]: 25.5% | viability, T/C [14]: 29.6% | viability, T/C [15]: 23.3% | viability, T/C [16]: 9.41% | viability, T/C [17]: 17.2% | viability, T/C [18]: 29.5% | viability, T/C [19]: 30.9% | viability, T/C [20]: 35.1% | viability, T/C [21]: 19.7% | viability, T/C [22]: 3.69% | viability, T/C [23]: 0.11% | viability, T/C [24]: 35.2% | viability, T/C [25]: 13.3% | viability, T/C [26]: 2.98% | viability, T/C [27]: 1.83% | viability, T/C [28]: 0.25% | viability, T/C [29]: 0.13% | viability, T/C [30]: 15.1%

O=C(c1cc(Cc2n[nH]c(=O)c3ccccc23)ccc1F)N1CCN(C(=O)C2CC2)CC1 + COc1cc2nc(C)nc(NC(C)c3cc(N)cc(C(F)(F)F)c3)c2cc1OC1CCOC1
pIC50 (second compound 0.1 µM): < 5.00 | pIC50 (second compound 0.316 µM): < 5.00 | pIC50 (second compound 1 µM): < 5.00 | pIC50 (second compound 3.16 µM): > 7.50 | pIC50 (second compound 10 µM): 7.33 | viability, T/C [1]: 60% | viability, T/C [2]: 105% | viability, T/C [3]: 59.7% | viability, T/C [4]: 93.4% | viability, T/C [5]: 120% | viability, T/C [6]: 79.2% | viability, T/C [7]: 54.1% | viability, T/C [8]: 57.4% | viability, T/C [9]: 55.9% | viability, T/C [10]: 56.9% | viability, T/C [11]: 64.4% | viability, T/C [12]: 66.2% | viability, T/C [13]: 103% | viability, T/C [14]: 114% | viability, T/C [15]: 126% | viability, T/C [16]: 124% | viability, T/C [17]: 103% | viability, T/C [18]: 100% | viability, T/C [19]: 47.7% | viability, T/C [20]: 50.5% | viability, T/C [21]: 49% | viability, T/C [22]: 59.8% | viability, T/C [23]: 56.9% | viability, T/C [24]: 54.9% | viability, T/C [25]: 60.5% | viability, T/C [26]: 29.5% | viability, T/C [27]: 26.1% | viability, T/C [28]: 33.6% | viability, T/C [29]: 20.9% | viability, T/C [30]: 27.6%

From PubChem BioAssay AID1963862 (Molecular Pharmacology Branch, DTP, NCI, 2024)
